Earlier results, collected in patent US9987593B2, “Method for producing NOx storage-reduction catalyst” (TOYOTA JIDOSHA KABUSHIKI KAISHA, priority 2016, dated 2018).

| Structure (SMILES) | solubility in water [mg/100 ml H2O] | solubility in water (in words) |
| --- | --- | --- |
| [K+].c1ccc([B-](c2ccccc2)(c2ccccc2)c2ccccc2)cc1 [potassium tetraphenylborate] | 0.18 | substantially insoluble in water |
| O=C(O)c1nc(=O)[nH]c(=O)[nH]1 [oteracil potassium, reference compound] |  | substantially insoluble in water |
